pIC50: −log10 of the molar value.
Key:
MCF7 = assay: Antiproliferative activity against human MCF7 cells assessed inhibition of cell growth incubated for 72 hrs by CCK-8 assay relative to control; assay type: functional
MV4-11 = assay: Antiproliferative activity against human MV4-11 cells assessed inhibition of cell growth incubated for 72 hrs by CCK-8 assay relative to control; assay type: functional
[1] = Antiproliferative activity against human RBE cells assessed inhibition of cell growth incubated for 72 hrs by CCK-8 assay relative to control; assay type: functional
MDA-MB-231 = assay: Antiproliferative activity against human MDA-MB-231 cells assessed inhibition of cell growth incubated for 72 hrs by CCK-8 assay; assay type: functional
MDA-MB-468 [2] = assay: Antiproliferative activity against human MDA-MB-468 cells assessed inhibition of cell growth at 2 uM incubated for 72 hrs by CCK-8 assay relative to control; assay type: functional
[3] = target: T1, Dual specificity protein kinase TTK (Homo sapiens) (UniProt P33981); assay: Inhibition of Mps1 (unknown origin) at 1000 nM pretreated for 10 mins followed by substrate addition and measured after 60 mins in presence of ATP by ADP-glo kinase assay relative to control; details: time 70.0 min
T1 sequence (whole entry): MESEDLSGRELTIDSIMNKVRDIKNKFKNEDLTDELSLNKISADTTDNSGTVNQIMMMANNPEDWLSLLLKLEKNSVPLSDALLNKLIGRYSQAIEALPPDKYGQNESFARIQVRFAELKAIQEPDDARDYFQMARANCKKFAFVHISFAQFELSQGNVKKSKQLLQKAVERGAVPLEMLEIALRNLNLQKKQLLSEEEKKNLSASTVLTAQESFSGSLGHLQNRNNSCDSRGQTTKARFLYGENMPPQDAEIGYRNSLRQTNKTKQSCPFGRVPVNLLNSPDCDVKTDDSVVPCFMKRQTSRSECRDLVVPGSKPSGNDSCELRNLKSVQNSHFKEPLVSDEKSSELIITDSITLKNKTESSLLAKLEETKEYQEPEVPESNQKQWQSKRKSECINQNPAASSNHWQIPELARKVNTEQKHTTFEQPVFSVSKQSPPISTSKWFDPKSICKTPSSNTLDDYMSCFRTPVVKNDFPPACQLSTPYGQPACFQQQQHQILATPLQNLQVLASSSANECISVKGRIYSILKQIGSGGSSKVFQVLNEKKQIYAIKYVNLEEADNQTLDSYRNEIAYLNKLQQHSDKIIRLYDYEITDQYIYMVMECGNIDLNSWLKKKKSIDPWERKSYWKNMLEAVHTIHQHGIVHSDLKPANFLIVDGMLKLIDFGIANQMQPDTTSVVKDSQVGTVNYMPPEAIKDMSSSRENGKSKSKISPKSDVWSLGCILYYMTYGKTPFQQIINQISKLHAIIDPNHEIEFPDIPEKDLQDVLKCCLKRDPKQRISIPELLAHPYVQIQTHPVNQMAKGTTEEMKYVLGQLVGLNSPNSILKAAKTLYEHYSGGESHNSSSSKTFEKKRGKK

[4] = target: T2, Dual specificity protein kinase TTK (Homo sapiens, UniProt P33981); assay: Inhibition of Mps1 (unknown origin) pretreated for 10 mins followed by substrate addition and measured after 60 mins in presence of ATP by ADP-glo kinase assay
T2 sequence (P33981 whole entry): T1 sequence (whole entry)

MDA-MB-468 [5] = assay: cells; assay type: functional, cell-based; details: Homo sapiens, MDA-MB-468, 72 h
Description: Antiproliferative activity against human MDA-MB-468 cells assessed inhibition of cell growth incubated for 72 hrs by CCK-8 assay

[6] = Metabolic stability in human liver microsome assessed as half life preincubated for 10 mins followed by NADPH addition and measured upto 60 mins by LC-MS/MS analysis; assay type: ADME; details: liver microsomes, time < 70 min
[7] = Metabolic stability in human microsome assessed as intrinsic clearance preincubated for 10 mins followed by NADPH addition and measured upto 60 mins by LC-MS/MS analysis; assay type: ADME; details: microsomes, time < 70 min
[8] = Metabolic stability in human liver microsome assessed as intrinsic clearance preincubated for 10 mins followed by NADPH addition and measured upto 60 mins by LC-MS/MS analysis; assay type: ADME; details: liver microsomes, time < 70 min, read-out: CLH
HCT-116 = assay: Antitumor activity against human HCT-116 cells xenografted in mouse assessed as tumor growth inhibition at 6.5 mg/kg, po; assay type: functional; details: read-out: TGI
[9] = target: T2, Dual specificity protein kinase TTK; assay: Inhibition of MPS1 (unknown origin)
MDA-MB-468 [10] = assay: Antitumor activity against human MDA-MB-468 cells xenografted in BALB/c nude mouse assessed as tumor growth inhibition at 30 mg/kg, iv administered once daily for 21 days; assay type: functional; details: MDA-MB-468, 504 h, time 21 day, read-out: TGI

Row | SMILES | inhibition (INH) (MCF7) [%] | inhibition (INH) (MV4-11) [%] | inhibition (INH) [1] [%] | inhibition (INH) (MDA-MB-231) [%] | inhibition at 2 µM (MDA-MB-468 [2]) [%] | inhibition [3] [%] | pIC50 [4] | further results
1 | COc1cc(N2CCC(N(C)C)CC2)ccc1Nc1nc(OC2CCCCC2)c2c(-c3ccc(OC)c(OC)c3)n[nH]c2n1 | 25.38 | 20.47 | 28.45 | 66.51 | 68.5 | 70.7 |  | 
2 | C=CC(=O)Nc1cc(N2CCN(C(C)=O)CC2)ccc1Nc1nc(-n2ccc(C(=O)Nc3c(CC)cccc3CC)c2)c2cn[nH]c2n1 |  |  |  |  | -2.46 |  | < 6.00 | 
3 | COc1cc(N2CCC(N(C)C)CC2)ccc1Nc1nc(OC2CCCC2)c2c(-c3ccc(OC)c(OC)c3)n[nH]c2n1 | 25.87 | 21.89 | 36.32 | 72.16 | 94.3 | 84.7 | 8.31 | pIC50 (MDA-MB-468 [5]): 5.90
4 | C#CC(=O)Nc1cc(N2CCN(C(C)=O)CC2)ccc1Nc1nc(-n2ccc(C(=O)Nc3c(CC)cccc3CC)c2)c2cn[nH]c2n1 |  |  |  |  | 7.17 |  | < 6.00 | 
5 | CCC(=O)Nc1cc(N2CCN(C(C)=O)CC2)ccc1Nc1nc(-n2ccc(C(=O)Nc3c(CC)cccc3CC)c2)c2cn[nH]c2n1 |  |  |  |  | -3.96 |  | < 6.00 | 
6 | COc1cc(N2CCC(N(C)C)CC2)ccc1Nc1nc(OC2CC2)c2c(-c3ccc(OC)c(OC)c3)n[nH]c2n1 | 20.26 | -17.18 | 14.2 | 35.24 | 30 | 63.9 |  | 
7 | COc1cc(N2CCOCC2)ccc1Nc1nc(OC2CCCC2)c2c(-c3ccc(OC)c(OC)c3)n[nH]c2n1 | 10.48 | -22.73 | 11.97 | 21.19 | 69.7 | 59.9 |  | pIC50 (MDA-MB-468 [5]): 5.68
8 | C=C(F)C(=O)Nc1cc(N2CCN(C(C)=O)CC2)ccc1Nc1nc(-n2ccc(C(=O)Nc3c(CC)cccc3CC)c2)c2cn[nH]c2n1 |  |  |  |  | -1.41 |  | < 6.00 | 
9 | COc1cc(N2CCN(C)CC2)ccc1Nc1nc(-n2ccc(C(=O)Nc3c(C)cccc3C)c2)c2cn[nH]c2n1 |  |  |  |  |  |  | 8.42 | pIC50 (MDA-MB-468 [5]): 6.07
10 | O=C(O)Cc1ccccc1Nc1c(Cl)cccc1Cl [DICLOFENAC] |  |  |  |  |  |  |  | half-life [6]: 11 min; microsomal CLint [7]: 126 µL/min/mg; CLint scaled [8]: 113 mL/min/kg
11 | COc1cc(N2CCN(C(C)=O)CC2)ccc1Nc1nc(OC2CCCC2)c2c(-c3ccc(OC)c(OC)c3)n[nH]c2n1 | 17.16 | 8.63 | 39.75 | 26.44 | 81.5 | 51.2 |  | pIC50 (MDA-MB-468 [5]): 6.00
12 | COc1cc(OC2CCN(C)CC2)ccc1Nc1ncc2c(n1)n(C1CCCC1)c(=O)n2C |  |  |  | 57.08 |  |  |  | pIC50 (MDA-MB-468 [5]): 5.68
13 | CCc1cccc(CC)c1NC(=O)c1ccn(-c2nc(Nc3ccc(N4CCN(C(C)=O)CC4)cc3OC)nc3[nH]ncc23)c1 |  |  |  |  |  |  | 8.40 | pIC50 (MDA-MB-468 [5]): 6.43
14 | COc1cc(N2CCN(C)CC2)ccc1Nc1nc(OC2CCCC2)c2c(-c3ccc(OC)c(OC)c3)n[nH]c2n1 | 17.07 | -3.55 | 4.83 | 24.33 | 40.7 | 63.9 |  | 
15 | CCc1cccc(CC)c1N1CCn2cc(-c3nc(Nc4ccc(N5CCOCC5)cc4OC)nc4[nH]ncc34)cc2C1=O |  |  |  |  |  |  | 8.21 | pIC50 (MDA-MB-468 [5]): 6.18
16 | COc1cccc(-c2n[nH]c3nc(Nc4ccc(N5CCC(N(C)C)CC5)cc4OC)nc(OC4CCCC4)c23)c1 | 22.33 | -1.1 | 4.83 | 22.71 | 2.34 | 44.5 |  | 
17 | Cc1cc(-c2cnn3c(NC[C@H]4C[C@@](C)(O)C4)cc(Oc4cccnc4)nc23)ccc1C(=O)NC1CC1 [LUVIXASERTIB] |  |  |  |  |  |  |  | inhibition in vivo at 6.5 mg/kg (HCT-116): 68%
18 | CCc1cccc(CC)c1NC(=O)c1ccn(-c2nc(Nc3ccc(N4CCN(C(C)=O)CC4)cc3NC(C)=O)nc3[nH]ncc23)c1 |  |  |  |  | -2.92 |  | < 6.00 | 
19 | CCc1cccc(CC)c1NC(=O)c1ccn(-c2nc(Nc3ccc(N4CCN(C)CC4)cc3OC)nc3[nH]ncc23)c1 |  |  |  |  | 64.3 |  | 8.47 | 
20 | C=CC(=O)Nc1cc(N2CCOCC2)ccc1Nc1nc(-c2cc3n(c2)CCN(c2c(CC)cccc2CC)C3=O)c2cn[nH]c2n1 |  |  |  |  |  |  | < 6.00 | pIC50 (MDA-MB-468 [5]): 5.58
21 | CC#CC(=O)Nc1cc(N2CCOCC2)ccc1Nc1nc(-n2ccc(C(=O)Nc3c(CC)cccc3CC)c2)c2cn[nH]c2n1 |  |  |  |  | -0.47 |  | < 6.00 | 
22 | COc1cc(N2CCN(C(C)=O)CC2)ccc1Nc1nc(-n2ccc(C(=O)Nc3c(C)cccc3C)c2)c2cn[nH]c2n1 |  |  |  |  | 34.8 |  | 8.07 | 
23 | COc1cc(N2CCCCC2)ccc1Nc1nc(OC2CCCC2)c2c(-c3ccc(OC)c(OC)c3)n[nH]c2n1 | 16.66 | -21.2 | 16.61 | 25.74 | -3.15 | 49.1 |  | 
24 | COc1ccc(-c2n[nH]c3nc(Nc4ccccc4)nc(OC4CCCC4)c23)cc1OC | 4.54 | -13.46 | 4.28 | 26.44 | 19.9 | 15.2 |  | 
25 | C=CC(=O)Nc1cc(NC(=O)CC)ccc1Nc1nc(-n2ccc(C(=O)Nc3c(CC)cccc3CC)c2)c2cn[nH]c2n1 |  |  |  |  | 5.51 |  | < 6.00 | 
26 | COc1ccc(-c2n[nH]c3nc(Nc4ccc(N5CCC(N(C)C)CC5)cc4OC)nc(OC4CCCC4)c23)cc1 | 10.76 | -10.86 | 7.85 | 10.57 | 5.57 | 35.7 |  | 
27 | COCCCNC(=O)c1cc(-c2ccc(OC)c(OC)c2)nc2[nH]nc(-c3ccc(OC)cc3)c12 |  |  |  |  |  |  |  | pIC50 [9]: 6.41
28 | C=CC(=O)Nc1cc(N2CCN(C(C)=O)CC2)ccc1Nc1nc(-c2cc3n(c2)CCN(c2c(CC)cccc2CC)C3=O)c2cn[nH]c2n1 |  |  |  |  | 0.38 |  | < 6.00 | 
29 | COc1ccc(Oc2cc(NCCC(F)(F)F)c3ncc(-c4ccc(C(=O)NC5CC5)c(C)c4)n3n2)c(F)c1F [BAY-1217389] |  |  |  | 61.14 |  |  |  | inhibition in vivo at 30 mg/kg (MDA-MB-468 [10]): 67%
30 | CCc1cccc(CC)c1NC(=O)c1ccn(-c2nc(Nc3ccc(N4CCOCC4)cc3N3CCN(C)CC3)nc3[nH]ncc23)c1 |  |  |  |  | -1.94 |  | < 6.00 | 

From ChEMBL document CHEMBL5360570, “Discovery of pyrazolo[3,4-b]pyridine derivatives as novel and potent Mps1 inhibitors for the treatment of cancer” (Eur J Med Chem, 2023)
